System: MDA-MB-231 cells
Assay: RPPA (reverse phase protein array)
Assay type: cell-based, human
Conditions: 1000nM
Protocol: RPPA analysis was performed by MD Anderson Cancer Center RPPA core facility.
Examination of the Molecular Signaling Events) and/or Downstream Pathways Responsible for the Migration and Invasion Effects Observed by Exemplary Compound Treatment. To pinpoint these observations to a molecular signaling event or specific downstream pathway, reverse phase protein array (RPPA) analysis was performed (Table 4).

CNC(=O)c1ccc(Nc2ncc(C(F)(F)F)c(NCc3nccnc3N(C)S(C)(=O)=O)n2)cc1 [Defactinib, defactinib, reference compound]
rel. Protein level, 4E-BP1: 115.6% | rel. Protein level, 4E-BP1_pS65: 91.8% | rel. Protein level, 14-3-3-beta: 98.4% | rel. Protein level, 14-3-3-zeta: 102.9% | rel. Protein level, 53BP1: 111.6% | rel. Protein level, A-Raf: 108.3% | rel. Protein level, ACC1: 95.9% | rel. Protein level, ACC_pS79: 102.5% | rel. Protein level, ADAR1: 111.8% | rel. Protein level, AMPK-a2_pS345: 98.1% | rel. Protein level, AMPKa: 105.6% | rel. Protein level, AMPKa_pT172: 101.3% | rel. Protein level, AR: 103.1% | rel. Protein level, ARID1A: 100.8% | rel. Protein level, ATM: 93.9% | rel. Protein level, ATM_pS1981: 99.4% | rel. Protein level, ATR_pS428: 93.7% | rel. Protein level, Akt: 99.2% | rel. Protein level, Akt_pS473: 79.3% | rel. Protein level, Akt_pT308: 97.2% | rel. Protein level, Annexin-I: 96.1% | rel. Protein level, Annexin-VII: 107.8% | rel. Protein level, Atg3: 98.1% | rel. Protein level, Atg7: 99.5% | rel. Protein level, Aurora-B: 91.9% | rel. Protein level, Axl: 76.0% | rel. Protein level, B7-H4: 102.6% | rel. Protein level, B-Raf: 104.8% | rel. Protein level, B-Raf_pS445: 108.8% | rel. Protein level, BAP1: 83.5% | rel. Protein level, BRD4: 108.7% | rel. Protein level, Bad_pS112: 103.3% | rel. Protein level, Bak: 103.1% | rel. Protein level, Bax: 106.4% | rel. Protein level, Bc1-xL: 100.4% | rel. Protein level, Bc12: 112.9% | rel. Protein level, Beclin_l: 99.2% | rel. Protein level, BiP-GRP78: 103.7% | rel. Protein level, Bid: 109.2% | rel. Protein level, Bim: 105.6% | rel. Protein level, C-Raf: 96.5% | rel. Protein level, C-Raf_pS338: 98.1% | rel. Protein level, CD4: 103.7% | rel. Protein level, CD20: 96.8% | rel. Protein level, CD29: 101.9% | rel. Protein level, CD31: 100.7% | rel. Protein level, CD44: 100.5% | rel. Protein level, CD45: 117.4% | rel. Protein level, CD49b: 105.5% | rel. Protein level, CD134: 100.5% | rel. Protein level, CDK1_pT14: 84.4% | rel. Protein level, COG3: 105.5% | rel. Protein level, Caspase-3: 108.3% | rel. Protein level, Caspase-7-cleaved-: 107.0% | rel. Protein level, Caspase-8: 97.2% | rel. Protein level, Caveolin-1: 135.0% | rel. Protein level, Chk2: 97.0% | rel. Protein level, Chk2_pT68: 106.0% | rel. Protein level, Chkl: 84.1% | rel. Protein level, Chkl_pS296: 98.2% | rel. Protein level, Claudin-7: 97.3% | rel. Protein level, Collagen-VI: 102.5% | rel. Protein level, Connexin-43: 86.5% | rel. Protein level, Cox2: 144.9% | rel. Protein level, Cox-IV: 101.8% | rel. Protein level, Creb: 103.7% | rel. Protein level, Cyclin-B1: 86.8% | rel. Protein level, Cyclin-D1: 100.5% | rel. Protein level, Cyclin-D3: 97.2% | rel. Protein level, Cyclin-E1: 101.8% | rel. Protein level, Cyclophilin-F: 85.5% | rel. Protein level, D-a-Tubulin: 98.2% | rel. Protein level, DJ1: 105.3% | rel. Protein level, DM-Histone-H3: 106.7% | rel. Protein level, DM-K9-Histone-H3: 108.9% | rel. Protein level, DUSP4: 135.6% | rel. Protein level, E2F1: 98.4% | rel. Protein level, E-Cadherin: 122.5% | rel. Protein level, EGFR: 93.7% | rel. Protein level, EGFR_pY1173: 100.8% | rel. Protein level, EMA: 102.2% | rel. Protein level, ENY2: 95.1% | rel. Protein level, ER: 99.6% | rel. Protein level, ER-a_pS118: 98.5% | rel. Protein level, ERCC1: 85.6% | rel. Protein level, ERCC5: 110.3% | rel. Protein level, Elk1_pS383: 97.3% | rel. Protein level, Ets-1: 90.6% | rel. Protein level, FAK: 116.1% | rel. Protein level, FAK_pY397: 93.5% | rel. Protein level, FASN: 98.1% | rel. Protein level, FOXM1: 90.3% | rel. Protein level, Fibronectin: 89.9% | rel. Protein level, FoxO3a: 104.9% | rel. Protein level, FoxO3a_pS318_S321: 99.0% | rel. Protein level, G6PD: 102.3% | rel. Protein level, GAPDH: 104.0% | rel. Protein level, GATA3: 91.1% | rel. Protein level, GATA-6: 99.4% | rel. Protein level, GCLM: 97.0% | rel. Protein level, GCN5L2: 94.5% | rel. Protein level, GSK-3a-b: 101.2% | rel. Protein level, GSK-3a-b_pS21_S9: 98.8% | rel. Protein level, Gab2: 94.6% | rel. Protein level, Glutamate-D1-2: 100.6% | rel. Protein level, Glutaminase: 100.6% | rel. Protein level, Granzyme-B: 102.7% | rel. Protein level, Gys: 107.0% | rel. Protein level, Gys_pS641: 106.2% | rel. Protein level, H2AX_pS140: 101.9% | rel. Protein level, HER2: 91.7% | rel. Protein level, HER2_pY1248: 101.5% | rel. Protein level, HER3: 98.5% | rel. Protein level, HER3_pY1289: 98.2% | rel. Protein level, HES1: 97.2% | rel. Protein level, HLA-DR-DP-DQ-DX: 98.9% | rel. Protein level, HSP27: 101.4% | rel. Protein level, HSP27_pS82: 114.2% | rel. Protein level, HSP70: 103.2% | rel. Protein level, Heregulin: 109.2% | rel. Protein level, Hexokinase-II: 98.0% | rel. Protein level, Hif-l-alpha: 116.1% | rel. Protein level, Histone-H3: 123.3% | rel. Protein level, IGF1R_pY1135_Y1136: 98.7% | rel. Protein level, IGFBP2: 90.9% | rel. Protein level, IGFRb: 99.7% | rel. Protein level, INPP4b: 99.6% | rel. Protein level, IR-b: 110.0% | rel. Protein level, IRF-1: 104.1% | rel. Protein level, IRS1: 96.1% | rel. Protein level, JNK2: 111.4% | rel. Protein level, JNK_pT183_Y185: 99.7% | rel. Protein level, Jagged1: 107.3% | rel. Protein level, Jak2: 104.3% | rel. Protein level, LC3A-B: 102.5% | rel. Protein level, LDHA: 121.2% | rel. Protein level, LRP6_pS1490: 109.2% | rel. Protein level, Lck: 101.9% | rel. Protein level, MAPK_pT202-Y204: 98.0% | rel. Protein level, MCT4: 119.5% | rel. Protein level, MDM2_pS166: 92.3% | rel. Protein level, MEK1: 110.2% | rel. Protein level, MEK1_p_S217-S221: 98.0% | rel. Protein level, MERIT40_pS29: 91.1% | rel. Protein level, MIF: 118.6% | rel. Protein level, MIG6: 133.9% | rel. Protein level, MMP2: 103.4% | rel. Protein level, MMP14-[EP1264Y]: 138.0% | rel. Protein level, MMP-14: 139.1% | rel. Protein level, MSH6: 99.2% | rel. Protein level, MSI2: 100.7% | rel. Protein level, Mcl-1: 101.9%

Source: patent publication US20200038513A1, “MODULATORS OF FAK PROTEOLYSIS AND ASSOCIATED METHODS OF USE” (ARVINAS OPERATIONS, INC., priority 2018, published 2020)
